Data reported in patent US20250099466A1 (BRISTOL-MYERS SQUIBB COMPANY, priority 2021, published 2025).
Oligonucleotides are written 5' to 3', each unit as a sugar letter and its base; * is a phosphorothioate linkage, no mark a phosphodiester; rarer units and linkages stand in square brackets, end groups in braces. Plain capitals give the bases only. e = 2'-O-(2-methoxyethyl) (MOE); [5mC] = 5-methylcytosine; d = 2'-deoxy (DNA)

Test system: electrically induced carotid artery thrombosis (ECAT) in rabbits; rabbit FXI mRNA
Assay: Rabbit ECAT model after FXI antisense oligonucleotide treatment
Format: in vivo
Conditions: subcutaneous twice weekly for 4 weeks
Experimental: The rabbit ECAT model, described by Wong et al. was used in the rabbit ECAT study (Wang et al. J. Pharmacol. Exp. Ther. 295:212-8, 2002). The ECAT model was conducted 3 to 4 days after the last dose of vehicle, FXI-ASO2, or FXI-ASO1. FXI-ASO1 has the nominal nucleotide sequence of […] (SEQ ID NO: 1) and is complementary to a sequence within rabbit FXI mRNA. FXI-ASO2 (control ASO) has the nominal nucleotide sequence of […] (SEQ ID NO: 2) and has no known complementary sequence in rabbit mRNA. Oligonucleotides were chemically modified with phosphorothioate in the backbone and 2′-O-methoxyethyl on the wings with a central deoxy gap (so-called 5-10-5 design). Cytosine bases were rendered as 5-methylcytosine.
Separate samples for each dose of FXI-ASO1 and FXI-ASO2 were weighed on an analytical balance. […]
Male New Zealand White rabbits were anesthetized with ketamine (50 mg/kg+50 mg/kg/h intramuscularly) and xylazine (10 mg/kg+10 mg/kg/h intramuscularly). […] Carotid blood flow was measured with an electromagnetic flow probe continuously beginning 30 min before the electrical stimulation and over a 90-min period after stimulation to monitor thrombosis-induced occlusion. Integrated carotid blood flow, as a percentage of pre-electrical stimulation control period, was measured by the area under the flow-time curve. […]

Substance: FXI-ASO2: control ASO CCTTCCCTGAAGGTTCCTCC (SEQ ID NO: 2), no known complementary sequence in rabbit mRNA (e[5mC]*e[5mC]*eT*eT*e[5mC]*d[5mC]*d[5mC]*dT*dG*dA*dA*dG*dG*dT*dT*e[5mC]*e[5mC]*eT*e[5mC]*e[5mC])
- thrombus weight: did not reduce thrombus weight
